{
  "source": "patent US8026275B2",
  "about": "(priority 2005, dated 2011)",
  "key": {"in vivo [1]": {"assay": "in vivo", "settings": "rat", "from_the_text": "Time plasma concentration curve was processed using a two compartment PK model supported by WinNonlin."}, "GABAA Cl channel [2]": {"tested_on": "GABAA Cl channel", "type": "binding, bovine", "settings": "read-out: IC50 of binding to GABA Cl channel"}, "GABAA Cl channel [3]": {"tested_on": "T1, GABAA Cl channel", "T1 construct": "other: determined graphically, increasing concentr; other: 10^-4M, bovine hippocampus", "type": "binding, bovine", "settings": "for pKd: read-out: binding constant (KD), inhibition of TBOB binding to GABAA receptor"}, "rats [4]": {"tested_on": "rats", "assay": "Anesthetic activity in vivo, time to recovery of righting reflex", "parameters": "species or system rat", "settings": "for duration of anesthesia (time to recovery of righting reflex): tail vein injection in DMSO, 28 μmol/kg (5 mg/kg for 2,6-diisopropyl phenol); for toxicity compared with 2,6-diisopropyl phenol: equimolar dose", "experimental": "Drugs solubilized in DMSO were administered to rats by tail vein injection (N=5 rats per group). […] GABAA binding activity in vitro was performed as described in Example 27."}, "[5]": {"assay": "Dose escalation in rats: mortality and anesthetic activity", "settings": "rat, in vivo", "experimental": "(§1) Drugs solubilized in DMSO were administered to rats (5 rats per group). Anesthetic activity in vivo was determined as time to recovery of righting reflex. […] In order to adjust for the differences in molecular weight between the two compounds, umol/kg dose was used."}, "rats [6]": {"tested_on": "rats", "assay": "Dose escalation in rats: mortality and anesthetic activity", "settings": "rats; for LD10: in DMSO, calculated from mortality curves", "experimental": "as §1"}, "[7]": {"settings": "rat, intravenously via jugular vein cannula, in DMSO, blood"}, "[8]": {"settings": "dissolved in DMSO"}, "GABAA agonist site": {"tested_on": "GABAA agonist site", "settings": "10^-4M, bovine hippocampus"}, "GABAA alpha-1 site": {"tested_on": "GABAA alpha-1 site", "settings": "10^-4M, bovine hippocampus"}, "GABAA alpha 2 site": {"tested_on": "GABAA alpha 2 site", "settings": "10^-4M, bovine hippocampus"}, "GABAA alpha-6 site": {"tested_on": "GABAA alpha-6 site", "settings": "10^-4M, bovine hippocampus"}, "in vivo [9]": {"assay": "in vivo", "settings": "rat, plasma, intravenous, 5 mg/kg"}, "[10]": {"assay": "Total Antioxidant Status Assay (CalBiochem), inhibition of ABTS oxidation", "type": "biochemical", "settings": "read-out: Antioxidant activity (IC50, 50% suppression of ABTS+ absorbance at 600 nm)", "from_the_text": "The assay used relies on the ability of antioxidants in the sample to inhibit the oxidation of ABTS (2,2'-Azino-di-[3-ethylbenzthiazoline sulphonate]) to ABTS+ by metmyoglobin (a peroxidase). The amount of ABTS+ produced was monitored at 600 nm. Under the reaction conditions used, the antioxidants in the sample suppress the absorbance at 600 nm to a degree which is proportional to their concentration and antioxidant activity."}, "[11]": {"settings": "5 mg/kg intravenously in DMSO, plasma"}, "[12]": {"settings": "determined graphically, increasing concentrations"}},
  "note": "pIC50, pKd: −log10 of the molar value. Read-outs that look alike come from different tables or passages of the source.",
  "data": [
    {"smiles": "CC(C)c1cccc(C(C)C)c1O", "note": "[2,6-diisopropyl phenol]", "values": [
      {"measurement": "V1", "setting": "in vivo [1]; [11]", "value": 15, "unit": "L/kg"},
      {"measurement": "V2", "setting": "in vivo [1]; [11]", "value": 58, "unit": "L/kg"},
      {"measurement": "AUC", "setting": "in vivo [1]; in vivo, iv, 5 mg/kg", "value": 400, "unit": "ng·h/mL"},
      {"measurement": "Cmax", "setting": "in vivo [1]; in vivo, iv, 5 mg/kg", "value": 300, "unit": "ng/mL"},
      {"measurement": "Vd", "setting": "in vivo [1]; in vivo, iv, 5 mg/kg", "value": 73, "unit": "L/kg"},
      {"measurement": "clearance", "setting": "in vivo [1]; in vivo, iv, 5 mg/kg", "value": 200, "unit": "mL/min/kg"},
      {"measurement": "pIC50", "setting": "GABAA Cl channel [2]", "value": 4.02},
      {"measurement": "inhibition of TBOB binding to the chloride channel", "setting": "GABAA Cl channel [3]", "value": "inhibited the binding of TBOB"},
      {"measurement": "pKd", "setting": "GABAA Cl channel [3]", "value": 5.24},
      {"measurement": "duration of anesthesia (time to recovery of righting reflex)", "setting": "rats [4]", "value": 20, "unit": "min"},
      {"measurement": "LD50", "setting": "[5]", "value": 45.3, "unit": "µmol/kg"},
      {"measurement": "time asleep at LD10", "setting": "rats [6]", "value": 0.35, "unit": "h"},
      {"measurement": "LD10", "setting": "rats [6]", "value": 28, "unit": "µmol/kg"},
      {"measurement": "AUC", "setting": "[7]", "value": 400, "unit": "ng·h/mL"},
      {"measurement": "CL", "setting": "[7]", "value": 195, "unit": "mL/min/kg"},
      {"measurement": "Cmax", "setting": "[7]", "value": 300, "unit": "ng/mL"},
      {"measurement": "Vc (volume of the central compartment)", "setting": "[7]", "value": 15.0, "unit": "L/kg"},
      {"measurement": "Vt (volume of the tissue compartment)", "setting": "[7]", "value": 58.0, "unit": "L/kg"},
      {"measurement": "time the rat was put to sleep", "setting": "[8]", "value": 20, "unit": "min"},
      {"measurement": "inhibition of the agonist site", "setting": "GABAA agonist site", "value": "No significant inhibition"},
      {"measurement": "inhibition of the alpha 1 site", "setting": "GABAA alpha-1 site", "value": "No significant inhibition"},
      {"measurement": "inhibition of the alpha 2 site", "setting": "GABAA alpha 2 site", "value": "No significant inhibition"},
      {"measurement": "inhibition of the alpha 6 site", "setting": "GABAA alpha-6 site", "value": "No significant inhibition"},
      {"measurement": "concentration at 20 min", "setting": "in vivo [9]", "value": 750, "unit": "nM"}
    ]},
    {"smiles": "CC(C)c1cc(C(=O)c2ccc(F)cc2)cc(C(C)C)c1O", "note": "[Compound 1, (4-fluorophenyl)-(4-hydroxy-3,5-diisopropylphenyl)methanone]", "values": [
      {"measurement": "pIC50", "setting": "[10]", "value": "< 3.00"}
    ]},
    {"smiles": "CC(C)c1cc(C(=O)c2ccc(C(F)(F)F)cc2)cc(C(C)C)c1O", "note": "[Compound 2]", "values": [
      {"measurement": "pIC50", "setting": "[10]", "value": "< 3.00"},
      {"measurement": "pKd", "setting": "GABAA Cl channel [3]; [12]", "value": 6.38},
      {"measurement": "toxicity compared with 2,6-diisopropyl phenol", "setting": "rats [4]", "value": "did not have toxicity above that of 2,6-diisopropyl phenol"},
      {"measurement": "duration of anesthesia (time to recovery of righting reflex)", "setting": "rats [4]", "value": "75 to 92", "unit": "min"},
      {"measurement": "LD50", "setting": "[5]", "value": 62.1, "unit": "µmol/kg"},
      {"measurement": "time asleep at LD10", "setting": "rats [6]", "value": 1.73, "unit": "h"},
      {"measurement": "anesthetic activity compared with 2,6-diisopropyl phenol", "setting": "rats [6]; dose escalation", "value": "better anesthetic activity than 2,6-diisopropyl phenol at all dose levels"},
      {"measurement": "LD10", "setting": "rats [6]", "value": 29, "unit": "µmol/kg"},
      {"measurement": "AUC", "setting": "[7]", "value": 127000, "unit": "ng·h/mL"},
      {"measurement": "CL", "setting": "[7]", "value": 1.3, "unit": "mL/min/kg"},
      {"measurement": "Cmax", "setting": "[7]", "value": 283000, "unit": "ng/mL"},
      {"measurement": "Vc (volume of the central compartment)", "setting": "[7]", "value": 0.04, "unit": "L/kg"},
      {"measurement": "Vss (volume distribution at steady state)", "setting": "[7]", "value": 5.3, "unit": "L/kg"},
      {"measurement": "Vt (volume of the tissue compartment)", "setting": "[7]", "value": 5.2, "unit": "L/kg"}
    ]},
    {"smiles": "CC(C)c1cc(C(=O)c2ccc([N+](=O)[O-])cc2)cc(C(C)C)c1O", "note": "[Compound 3, (4-hydroxy-3,5-diisopropylphenyl)-(4-nitrophenyl)methanone]", "values": [
      {"measurement": "pIC50", "setting": "[10]", "value": "< 3.00"}
    ]},
    {"smiles": "CC(C)c1cc(C(=O)c2ccc(C(F)(F)F)c(F)c2)cc(C(C)C)c1O", "note": "[Compound 4, (3-fluoro-4-(trifluoromethyl)phenyl)-(4-hydroxy-3,5-diisopropylphenyl)methanone]", "values": [
      {"measurement": "pIC50", "setting": "[10]", "value": "< 3.00"}
    ]},
    {"smiles": "CC(C)c1cc(C(=O)c2cccc(C(F)(F)F)c2)cc(C(C)C)c1O", "note": "[Compound 5, (3-(trifluoromethyl)phenyl)-(4-hydroxy-3,5-diisopropylphenyl)methanone]", "values": [
      {"measurement": "pIC50", "setting": "[10]", "value": "< 3.00"}
    ]},
    {"smiles": "CC(C)c1cc(C(=O)c2cc(F)cc(C(F)(F)F)c2)cc(C(C)C)c1O", "note": "[Compound 6, (3-fluoro-5-(trifluoromethyl)phenyl)-(4-hydroxy-3,5-diisopropylphenyl)methanone]", "values": [
      {"measurement": "pIC50", "setting": "[10]", "value": "< 3.00"}
    ]},
    {"smiles": "CC(C)c1cc(C(=O)c2ccc(C(C)(C)C)cc2)cc(C(C)C)c1O", "note": "[Compound 9, (4-tert-butylphenyl)-(4-hydroxy-3,5-diisopropylphenyl)methanone]", "values": [
      {"measurement": "pIC50", "setting": "[10]", "value": "< 3.00"}
    ]},
    {"smiles": "CC(C)c1cc(C(=O)c2ccc(I)cc2)cc(C(C)C)c1O", "note": "[Compound 11, (4-hydroxy-3,5-diisopropylphenyl)-(4-iodophenyl)methanone]", "values": [
      {"measurement": "pIC50", "setting": "[10]", "value": "< 3.00"},
      {"measurement": "pKd", "setting": "GABAA Cl channel [3]; [12]", "value": 6.44},
      {"measurement": "toxicity compared with 2,6-diisopropyl phenol", "setting": "rats [4]", "value": "did not have toxicity above that of 2,6-diisopropyl phenol"},
      {"measurement": "duration of anesthesia (time to recovery of righting reflex)", "setting": "rats [4]", "value": 86, "unit": "min"}
    ]},
    {"smiles": "CC(C)c1cc(C(=O)c2ccc(C#N)cc2)cc(C(C)C)c1O", "note": "[Compound 13, (4-cyanophenyl)-(4-hydroxy-3,5-diisopropylphenyl)methanone]", "values": [
      {"measurement": "pIC50", "setting": "[10]", "value": "< 3.00"}
    ]},
    {"smiles": "CC(C)c1cc(C(=O)c2ccc(C(F)(F)F)nc2)cc(C(C)C)c1O", "note": "[Compound 14, (6-(trifluoromethyl)pyridin-3-yl)-(4-hydroxy-3,5-diisopropylphenyl)methanone]", "values": [
      {"measurement": "pIC50", "setting": "[10]", "value": "< 3.00"}
    ]},
    {"smiles": "CC(C)c1cc(C(O)c2ccc(C(F)(F)F)cc2)cc(C(C)C)c1O", "note": "(stereo not drawn) [Compound 20, 4-((4-(trifluoromethyl)phenyl)(hydroxy)methyl)-2,6-diisopropylphenol]", "values": [
      {"measurement": "pIC50", "setting": "[10]", "value": 4.55}
    ]}
  ]
}
